In one test the test system is HCT-116. Put plainly: Apoptosis induction in HCT-116. The class given is cell-based, human.
The next test concerns BID. Kind of test: Activation of BID (tBID) by Western blotting in CCSCs. It counts as cell-based, human. Particulars: 24-hour treatment; aspirin 5 mM, d-T3 50 μM. On the procedure: FIGS. 10A, 10B, 10C, and 10D show induction of apoptosis measured by flow cytometry (FIG. 10A) and confocal microscopy (FIG. 10B) in CCSCs after treatment with vehicle, aspirin, d-T3, and aspirin+d-T3. Effect of BID inhibitor on apoptosis in CCSCs after treatment with aspirin or d-T3 (FIG. 10C). Induction oft-BID in CCSCs after treatment with vehicle, aspirin, d-T3, and aspirin+d-T3 (FIG. 10D).
d-T3 can induce selective killing of CCSCs through the BH3 interacting-domain death agonist (BID). […] It should be noted that these in vitro results are consistent with the in vivo observation of the selective induction of apoptosis in APC mutant colon crypt cells in the ApcMin/+ mice but not in the normal intestinal cells of the AOM rat CRC model or NOD/SCID mice. […] Although the proapoptotic activity of d-T3 is a consistent observation of d-T3 anticancer activity in all of the published reports, the mechanism by which d-T3 induces apoptosis is poorly understood. Apoptotic death is regulated by the death receptor (extrinsic) and mitochondrial (intrinsic) pathways. […] To obtain preliminary information regarding the mechanisms by which d-T3 induces apoptosis in CCSCs, the activation of BID was measured after 24-hour treatment with vehicle, aspirin (5 mM), d-T3 (50 μM), and aspirin combined with d-T3 in CCSCs by Western blotting.

The test system of test [1] is colon cancer stem cells (CCSC). Kind of test: d-T3 IC50 in colon cancer stem cells. It counts as cell-based, human. The settings on record: 5 days treatment, daily fresh media change.
In test [2] the test system is intestinal stem cells of ApcMin/+ mice. Kind of test: Caspase 3 staining of intestinal crypts in ApcMin/+ mice. The class given is in vivo. Particulars: small intestinal crypts of ApcMin/+ mice. From the text: (§1) Although substantial preclinical evidence exists regarding the preventive activity of d-T3 and g-T3 in various types of cancers, there is no report of d-T3 prevention of colon cancer despite evidence of activity in colon cell lines and xenograft models. […] Treatment with aspirin alone reduced adenoma formation by 38%, and treatment with d-T3 alone reduced adenoma formation by 44%, while treatment with the combination of aspirin and d-T3 reduced adenoma formation by 58%.

The next test concerns ApcMin/+ mice. Put plainly: Adenoma (intestinal polyp) formation in ApcMin/+ mice. It counts as in vivo.
Text: as §1, with “FIGS. 1A and 1B show the number of intestinal polyps (FIG. 1A) and H&E staining of polyps (FIG. 1B) in ApcMin/+ mice treated with vehicle (V), aspirin (Asp), d-T3, and combination of aspirin+d-T3. Black dots in FIG. 1B point out polyps in the intestine. Although” for “Although”

The next test has as its system CCSCs. Put plainly: miRNA profiles in CCSCs. The settings on record: 24-hour treatment; aspirin 5 mM, d-T3 10 μM. It counts as cell-based, human. From the text: Given the results, and without intending to be bound by any theory, it appears that the induction of apoptosis can be one mechanism by which d-T3 prevents CRC and augments CRC prevention activity. BID knockout can diminish this effect. The biorepository as well as materials generated from studies can be used to explore other mechanisms of d-T3 action such as anti-inflammatory, mediation of the immune system, anti-angiogenesis, and alterations in metabolism. To this end, miRNA profiles were conducted that are altered with d-T3, aspirin, and d-T3 with aspirin treatment in CCSCs. To discover early miRNAs that are likely to influence activity, these cells were deliberately treated with doses of these agents at a duration when there were no phenotypic changes of apoptosis.

A further test concerns the target T1, hCAS (Homo sapiens, UniProt P55060).
T1 construct: endogenous in cells; host or cells: MiaPaCa-2 human pancreatic cancer cells
T1 sequence (P55060 1-971): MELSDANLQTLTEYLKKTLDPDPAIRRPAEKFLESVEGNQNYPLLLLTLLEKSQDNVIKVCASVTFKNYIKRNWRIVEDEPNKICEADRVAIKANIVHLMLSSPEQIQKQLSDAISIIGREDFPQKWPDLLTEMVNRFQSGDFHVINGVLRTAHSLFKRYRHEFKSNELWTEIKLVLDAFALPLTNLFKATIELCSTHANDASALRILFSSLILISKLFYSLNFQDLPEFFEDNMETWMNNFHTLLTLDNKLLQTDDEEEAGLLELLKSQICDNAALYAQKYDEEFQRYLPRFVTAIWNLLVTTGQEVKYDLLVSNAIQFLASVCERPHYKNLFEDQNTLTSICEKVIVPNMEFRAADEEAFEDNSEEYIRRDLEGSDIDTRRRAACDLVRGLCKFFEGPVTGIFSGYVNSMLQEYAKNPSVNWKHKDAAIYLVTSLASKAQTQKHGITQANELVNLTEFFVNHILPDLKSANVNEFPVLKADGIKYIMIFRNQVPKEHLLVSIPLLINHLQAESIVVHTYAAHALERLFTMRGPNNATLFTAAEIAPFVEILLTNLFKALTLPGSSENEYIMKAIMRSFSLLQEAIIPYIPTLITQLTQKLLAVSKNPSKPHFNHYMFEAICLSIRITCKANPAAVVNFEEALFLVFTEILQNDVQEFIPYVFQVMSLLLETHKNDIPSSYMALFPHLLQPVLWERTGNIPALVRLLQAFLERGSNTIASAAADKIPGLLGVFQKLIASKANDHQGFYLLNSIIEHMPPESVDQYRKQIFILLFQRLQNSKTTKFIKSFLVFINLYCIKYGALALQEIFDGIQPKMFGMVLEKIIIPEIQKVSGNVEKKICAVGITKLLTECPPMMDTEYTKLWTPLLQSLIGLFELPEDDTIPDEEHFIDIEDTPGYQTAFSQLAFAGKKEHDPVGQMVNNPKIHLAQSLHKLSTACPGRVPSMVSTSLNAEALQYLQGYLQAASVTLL
Kind of test: Competitive affinity-isolation of hCAS in MiaPaCa-2 cell lysate. The class given is binding. Particulars: excess free compound. As for the experimental part:
This experiment used a synthetic biotin-δ-tocotrienol conjugate (shown below to inhibit growth activity of cultured MiaPaca-2 human pancreatic cancer cells) to confirm affinity-isolation of hCAS. To confirm that δ-T3 binds to hCAS in intact cells, biotinylated δ-T3 (B-δ-T3) was prepared by chemically coupling the —OH group of δ-T3 to the —COOH of biotin using a PEG-iodoactamide linker (FIG. 18). […] Affinity-isolation of hCAS was inhibited in the presence of free δ-tocotrienol but not with free δ-tocopherol.

SMILES strings stand for the structures.

Data on 1 compound can be found in patent US20210205264A1, “USE OF DELTA-TOCOTRIENOL FOR TREATING CANCER” (H. LEE MOFFITT CANCER CENTER & RESEARCH INSTITUTE INC., priority 2018, published 2021).

In the case of `CC(C)=CCC/C(C)=C/CC/C(C)=C/CC[C@]1(C)CCc2cc(O)cc(C)c2O1` [d-T3, δ-tocotrienol], the apoptosis result in the test with HCT-116 is “significantly induced apoptosis”. In the test on BID, the “activation of tBID” value was “significantly activated”. Also, half-maximal inhibition in test [1] (IC50) required 5 µM. Moreover, the “apoptosis detected by caspase 3 staining” value in test [2] is reported as “markedly induced apoptosis”. Besides, in the test on ApcMin/+ mice, the reduced adenoma formation is recorded as 44%. Further, in the test on CCSCs, the “down-regulation of miRNAs compared with vehicle (number)” value stood at 9 miRNAs and the “up-regulation of miRNAs compared with vehicle (number)” value is listed as 7 miRNAs. In addition, at hCAS, the “affinity-isolation of hCAS / hCAS binding to biotin-T3 in presence of free competitor” value is given as “reduces hCAS binding”. Also, the “affinity-isolation of hCAS / hCAS binding to biotin-T3 in presence of free competitor” value at hCAS (listed as δ-tocotrienol) is reported as “inhibited”.
